Assay results published in ChEMBL document CHEMBL2073746, “Inhibitory effect of the reversal agents V-104, GF120918 and Pluronic L61 on MDR1 Pgp-, MRP1- and MRP2-mediated transport” (Br J Cancer, 2000).

Key:
Assay type in all cases: functional, cell-based
[1] = target: T1, ATP-dependent translocase ABCB1 (Homo sapiens, UniProt P08183); assay: TP_TRANSPORTER: inhibition of Daunorubicin transepithelial transport (basal to apical)(Daunorubicin: 2 uM, V-104: 15 uM) in MDR1-expressing MDCKII cells; settings: dog, mdck-ii
[2] = target: ATP-binding cassette sub-family C member 2 (Homo sapiens, UniProt Q92887); assay: TP_TRANSPORTER: inhibition of Vinblastine transepithelial transport (basal to apical)(Vinblastine: 2 uM, Pluronic L61: 0.1%) in MRP2-expressing MDCKII cells; settings: dog, mdck-ii
[3] = target: T1, ATP-dependent translocase ABCB1; assay: TP_TRANSPORTER: inhibition of Vinblastine transepithelial transport (basal to apical) (Vinblastine: 2 uM, Pluronic L61: 0.04%) in MDR1-expressing LLC-PK1 cells; settings: pig

T1 sequence (P08183 whole entry): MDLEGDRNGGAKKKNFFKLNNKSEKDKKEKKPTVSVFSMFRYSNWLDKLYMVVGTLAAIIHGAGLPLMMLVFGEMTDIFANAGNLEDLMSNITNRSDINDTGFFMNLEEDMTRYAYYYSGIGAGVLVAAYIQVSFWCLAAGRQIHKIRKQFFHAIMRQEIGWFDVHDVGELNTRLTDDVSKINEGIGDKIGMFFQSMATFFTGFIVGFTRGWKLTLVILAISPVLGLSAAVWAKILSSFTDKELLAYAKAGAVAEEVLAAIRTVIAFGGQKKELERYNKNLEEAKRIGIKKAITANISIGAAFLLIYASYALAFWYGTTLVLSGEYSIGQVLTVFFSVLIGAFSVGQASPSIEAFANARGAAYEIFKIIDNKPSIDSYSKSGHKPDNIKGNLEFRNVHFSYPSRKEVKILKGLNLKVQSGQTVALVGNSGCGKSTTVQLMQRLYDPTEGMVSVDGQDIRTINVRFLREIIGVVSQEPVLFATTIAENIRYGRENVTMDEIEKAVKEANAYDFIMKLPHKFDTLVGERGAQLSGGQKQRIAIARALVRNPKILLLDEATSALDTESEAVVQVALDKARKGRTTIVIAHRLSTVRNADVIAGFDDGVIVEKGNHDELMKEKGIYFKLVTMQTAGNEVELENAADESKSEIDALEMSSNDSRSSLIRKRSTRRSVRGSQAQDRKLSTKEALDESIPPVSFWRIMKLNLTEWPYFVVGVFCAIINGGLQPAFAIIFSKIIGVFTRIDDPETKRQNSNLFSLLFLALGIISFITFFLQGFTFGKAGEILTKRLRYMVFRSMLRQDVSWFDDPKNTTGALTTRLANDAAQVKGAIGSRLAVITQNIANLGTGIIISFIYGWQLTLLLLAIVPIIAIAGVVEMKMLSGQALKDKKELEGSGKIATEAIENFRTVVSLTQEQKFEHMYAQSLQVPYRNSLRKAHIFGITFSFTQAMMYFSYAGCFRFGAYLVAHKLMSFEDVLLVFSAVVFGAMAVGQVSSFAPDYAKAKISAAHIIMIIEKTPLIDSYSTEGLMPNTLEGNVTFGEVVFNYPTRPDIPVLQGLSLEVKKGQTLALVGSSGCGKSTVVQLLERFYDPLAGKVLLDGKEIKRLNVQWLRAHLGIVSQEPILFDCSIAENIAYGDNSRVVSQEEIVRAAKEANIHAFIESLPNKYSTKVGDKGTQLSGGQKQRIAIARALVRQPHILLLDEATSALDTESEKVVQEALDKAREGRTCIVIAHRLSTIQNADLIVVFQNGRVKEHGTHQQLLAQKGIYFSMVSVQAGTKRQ
Sequence of ATP-binding cassette sub-family C member 2 (Q92887 whole entry): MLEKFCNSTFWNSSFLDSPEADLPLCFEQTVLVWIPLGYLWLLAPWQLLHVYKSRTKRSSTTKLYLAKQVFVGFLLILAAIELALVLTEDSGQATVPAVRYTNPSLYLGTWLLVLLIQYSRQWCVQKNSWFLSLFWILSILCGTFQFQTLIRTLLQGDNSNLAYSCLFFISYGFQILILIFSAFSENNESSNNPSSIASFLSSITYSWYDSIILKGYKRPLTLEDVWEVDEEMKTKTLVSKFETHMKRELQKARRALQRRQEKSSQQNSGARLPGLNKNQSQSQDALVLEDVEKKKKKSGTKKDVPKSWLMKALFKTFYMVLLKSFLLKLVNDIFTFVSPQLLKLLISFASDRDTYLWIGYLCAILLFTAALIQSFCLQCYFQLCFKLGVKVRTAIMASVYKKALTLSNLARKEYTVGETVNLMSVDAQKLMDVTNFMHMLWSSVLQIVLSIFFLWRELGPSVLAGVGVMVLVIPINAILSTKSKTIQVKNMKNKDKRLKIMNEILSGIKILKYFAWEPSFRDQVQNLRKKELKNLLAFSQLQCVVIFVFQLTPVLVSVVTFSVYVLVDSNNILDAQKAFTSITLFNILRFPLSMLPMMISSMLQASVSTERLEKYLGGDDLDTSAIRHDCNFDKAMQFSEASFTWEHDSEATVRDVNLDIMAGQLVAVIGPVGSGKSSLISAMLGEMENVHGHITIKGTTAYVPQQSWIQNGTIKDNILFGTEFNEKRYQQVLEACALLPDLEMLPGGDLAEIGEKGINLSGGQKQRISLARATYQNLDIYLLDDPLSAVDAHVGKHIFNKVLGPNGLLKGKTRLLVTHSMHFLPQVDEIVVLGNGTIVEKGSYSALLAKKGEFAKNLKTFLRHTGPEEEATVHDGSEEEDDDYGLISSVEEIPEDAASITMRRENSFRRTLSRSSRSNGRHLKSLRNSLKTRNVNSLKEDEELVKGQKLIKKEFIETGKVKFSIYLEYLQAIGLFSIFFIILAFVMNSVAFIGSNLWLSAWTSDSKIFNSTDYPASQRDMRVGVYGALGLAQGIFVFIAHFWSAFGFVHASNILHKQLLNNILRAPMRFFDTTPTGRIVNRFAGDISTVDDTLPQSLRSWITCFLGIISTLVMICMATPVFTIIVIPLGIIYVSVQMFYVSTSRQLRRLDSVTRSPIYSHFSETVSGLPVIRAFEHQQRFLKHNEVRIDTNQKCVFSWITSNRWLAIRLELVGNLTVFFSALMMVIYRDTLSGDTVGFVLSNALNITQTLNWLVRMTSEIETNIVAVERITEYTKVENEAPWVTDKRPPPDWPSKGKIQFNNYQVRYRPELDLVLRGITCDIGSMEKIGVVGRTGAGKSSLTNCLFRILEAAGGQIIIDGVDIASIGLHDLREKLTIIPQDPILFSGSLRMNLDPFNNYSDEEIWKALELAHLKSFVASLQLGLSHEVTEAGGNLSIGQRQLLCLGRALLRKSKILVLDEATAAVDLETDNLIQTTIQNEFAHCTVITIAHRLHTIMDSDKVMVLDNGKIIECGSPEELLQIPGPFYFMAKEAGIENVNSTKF

Row | Activity [1] | Activity [2] | Activity [3] | Compound
1 | inhibitor [+] |  |  | COc1cc(C(=O)C(=O)N2CCCC[C@H]2C(=O)O)cc(OC)c1OC
2 |  | inhibitor [+] | inhibitor [+] | PLURONIC L61
